Source: patent publication US7253177B2, “Synthesis and antimalarial activity of pyrrolo[3,2-f]quinazoline-1,3-diamine derivatives” (United States of America as Represented by the Secretary of …, priority 2004, dated 2007)
“And” between values parts separate entries of the source, which are not always exact repeats. Identical values can stand only once.

System: P. cynomolgi sporozoites
Assay: Presumptive causal prophylactic test against P. cynomolgi in Rhesus monkey
Type: in vivo, Plasmodium cynomolgi
Conditions: for protection compared with untreated control: oral 3 mg/kg, 3 mg/kg
Experimental: (e). Toxicity Study in Aotus monkey: Protocol: Two malaria double cured Aotus weighing 1027-695 grams respectively received single dose of 3 mg/kg orally of the two compounds 2b and 3e. The monkeys were weighed and pre-bleed for CBC and Chemistry (ALT, BUN, Creatinine) determination, and again three, seven and 15 days post treatment. Signs of toxicity such as anorexia, vomiting, diarrhea or behavior changes were recorded. […] (f). Antimalarial Activity against P. falciparum in Aotus monkey: Protocol: Six (6) malaria naive Aotus lemurinus lemurinus (weigh 787-978 grms) were divided into two groups of two Aotus each plus two controls (MN13177 male and MN 13153 male) and infected with 5×10^6 P. falciparum FVO malaria parasites with 1 ml of an appropriate dilution in RPMI media intravenously on the saphenous vein. When their parasitemia reached 5×10^4 parasites/ul, treatment was started. Giemsa-stained thick blood smears were prepared daily with a prick in the ear marginal vein and parasites enumerated by the Earle and Perez method. Group 1 Aotus received 3e at 1 mg/kg once a day×three days. Group 2 Aotus received 2b at 1 mg/kg once a day×three days. The monkeys were weight and pre-bled for CBC and Chemistry (ALT, BUN, Creatinine) determination, and on day 4 post-treatmetne (PT). Bleedings for Pk determinations were carried out on day 1 PT at time 0, 1 hr, 7:30 hr and 24 hr PT. Group 1 (receiving 3e) animals cleared the parasitemias on day 3 post treatment (PT) and remained negative up to 100 days PT. In group 2 (receiving 2b), one animal cleared on day 3 PT and the other one on day 4 PT remaining negative up to 100 days PT. […] (g). Antimalarial Activity against P. vivax in Aotus monkey: Protocol: Fourteen (14) P. falciparum cured Aotus l. lemurinus monkeys (male and female) (weight 700-925 grms) were infected intravenously with 5×10^6 parasites of the P. vivax AMRU-1 strain diluted in RPMI media obtained from a donor and divided into two larger groups of 6 monkeys each (Group I and Group II) (2 monkeys per dose level), that received 3e and 6 monkeys (2 monkeys per dose level) that received 2b daily at 0.5, 1.0 and 3 mg/kg/day for a total of 3 days. Two monkeys were left has untreated controls. Treatment started when parasitemia reached 5,000 parasites×cc/mm on day 6 PI. Daily food intake was documented. Daily Giemsa-stained thick blood smears were prepared from a prick in the marginal ear vein and parasites enumerated by the Earle and Perez method. The animals were weighed at weekly intervals. Blood samples for Pk determination were collected at the following time points as follows: Day 0: CBC and chemistry panel (ALT. Creatinine and BUN); Day 4: CBC and chemistry Panel. CBC and chemistry panels were done the day prior to first dose and 24 hours after last dose and at weekly intervals thereafter. […] The other monkeys received 1 and 3 mg/kg of 3e remained negative until day 100 PT. In Group II, all monkeys except for one that received 3 mg/kg of 2b failed treatment and were retreated on day 3 PT with 3e at either 0.25, 0.5 or 1 mg/kg for three days. In the monkeys that received re-treatment at 0.25 mg/kg, one cleared on day 4 PT but needed to be treated with Mefloquine on day 8 PT due to a low platelet count. The other animals that had not been cleared by day 6 PT were treated with Mefloquine. […] P. vivax is known to be very drug resistant to antifolates. (h). Presumptive Causal Prophylactic Test against P. cynomolgi in Rhesus monkey: Protocol:
(1). Type of study: This study is causal prophylactic test. Six Rhesus monkeys weighing 3-4 kg were randomized to 2 control animals and 2 groups of 2 experimental animals each.
(2). Donor monkey: A donor monkey was inoculated intravenously with 1.3 mL freshly-thawed frozen infected red blood cell. When the monkey developed gametocytemia, mosquito feedings were conducted on days 13 and 14 after inoculation. […]

SMILES	comparative protection activity (P. cynomolgi)	day of parasitemia development after sporozoite challenge (oral 1 mg/kg on days -1, 0, 1, control day 8, listed as WR288830)	protection compared with untreated control	day of parasitemia development after sporozoite challenge (oral 1 mg/kg on days -1, 0, 1, control day 8)	day of parasitemia development after sporozoite challenge (oral 3 mg/kg on days -1, 0, 1, control day 8) [days]
CCOC(=O)Nc1nc(NC(=O)OCC)c2c(ccc3c2ccn3Cc2ccccc2C(F)(F)F)n1 [Compound 2b]	better protection activity than 3e	9 days and 15 days	8 days and 15 days		
CC(=O)N(C(C)=O)c1nc(N(C(C)=O)C(C)=O)c2c(ccc3c2ccn3Cc2ccccc2C(F)(F)F)n1 [Compound 3e, 1,3-Bis(diacetylamino)-7-(2-trifluoromethyl)benzyl-7H-pyrrolo[3,2-f]quinazoline]			7 days	8 days and 11 days	15
